These results are taken from US7196112B2, “Cell adhesion inhibitors” (Biogen Idec MA Inc., priority 2004, dated 2007).

By IC50 is commonly meant the concentration needed to halve the response being measured. The low end stands for inhibition by little substance, the high end for a need for much substance. Broadly, the Kd is the free concentration of one partner at which half of the binding sites on the other are occupied at equilibrium, for simple one-to-one binding.

The target of one experiment is T1, α2β1 (Homo sapiens, UniProt P05556+P17301).
T1 construct: expressed in transfected cells; host or cells: K562 cells transfected with human α2 integrin chain (gift from M. Hemler)
T1 sequence (P17301 30-1181): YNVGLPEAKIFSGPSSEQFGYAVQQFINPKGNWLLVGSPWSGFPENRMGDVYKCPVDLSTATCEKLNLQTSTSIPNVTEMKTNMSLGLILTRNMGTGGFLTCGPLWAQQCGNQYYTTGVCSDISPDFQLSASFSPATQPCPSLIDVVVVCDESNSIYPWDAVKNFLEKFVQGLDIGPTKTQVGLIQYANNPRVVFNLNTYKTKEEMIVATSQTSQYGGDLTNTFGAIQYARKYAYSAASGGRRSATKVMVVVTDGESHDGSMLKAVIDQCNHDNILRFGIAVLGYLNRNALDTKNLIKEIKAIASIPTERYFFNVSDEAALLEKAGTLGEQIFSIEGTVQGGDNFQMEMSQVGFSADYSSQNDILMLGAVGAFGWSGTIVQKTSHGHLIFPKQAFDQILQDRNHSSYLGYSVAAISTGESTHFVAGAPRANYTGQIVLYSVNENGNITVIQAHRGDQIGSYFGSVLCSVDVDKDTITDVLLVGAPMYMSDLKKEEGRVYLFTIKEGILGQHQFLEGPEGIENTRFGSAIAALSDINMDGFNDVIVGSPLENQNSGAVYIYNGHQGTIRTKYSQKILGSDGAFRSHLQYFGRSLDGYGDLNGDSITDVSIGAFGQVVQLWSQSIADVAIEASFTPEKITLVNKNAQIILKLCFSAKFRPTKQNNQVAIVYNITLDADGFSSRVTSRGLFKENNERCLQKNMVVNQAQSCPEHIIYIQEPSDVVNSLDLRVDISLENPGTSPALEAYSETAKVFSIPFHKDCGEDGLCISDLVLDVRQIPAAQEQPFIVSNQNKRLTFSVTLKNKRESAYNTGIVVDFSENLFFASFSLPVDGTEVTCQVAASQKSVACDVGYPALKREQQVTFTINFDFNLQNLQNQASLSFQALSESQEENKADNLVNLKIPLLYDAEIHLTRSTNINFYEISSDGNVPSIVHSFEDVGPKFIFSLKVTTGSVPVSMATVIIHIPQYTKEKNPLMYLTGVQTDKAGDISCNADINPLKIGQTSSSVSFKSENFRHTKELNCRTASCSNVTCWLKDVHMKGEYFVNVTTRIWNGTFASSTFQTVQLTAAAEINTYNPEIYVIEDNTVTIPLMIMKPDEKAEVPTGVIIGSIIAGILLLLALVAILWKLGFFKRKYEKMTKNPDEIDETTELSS
T1 sequence (P05556 21-798): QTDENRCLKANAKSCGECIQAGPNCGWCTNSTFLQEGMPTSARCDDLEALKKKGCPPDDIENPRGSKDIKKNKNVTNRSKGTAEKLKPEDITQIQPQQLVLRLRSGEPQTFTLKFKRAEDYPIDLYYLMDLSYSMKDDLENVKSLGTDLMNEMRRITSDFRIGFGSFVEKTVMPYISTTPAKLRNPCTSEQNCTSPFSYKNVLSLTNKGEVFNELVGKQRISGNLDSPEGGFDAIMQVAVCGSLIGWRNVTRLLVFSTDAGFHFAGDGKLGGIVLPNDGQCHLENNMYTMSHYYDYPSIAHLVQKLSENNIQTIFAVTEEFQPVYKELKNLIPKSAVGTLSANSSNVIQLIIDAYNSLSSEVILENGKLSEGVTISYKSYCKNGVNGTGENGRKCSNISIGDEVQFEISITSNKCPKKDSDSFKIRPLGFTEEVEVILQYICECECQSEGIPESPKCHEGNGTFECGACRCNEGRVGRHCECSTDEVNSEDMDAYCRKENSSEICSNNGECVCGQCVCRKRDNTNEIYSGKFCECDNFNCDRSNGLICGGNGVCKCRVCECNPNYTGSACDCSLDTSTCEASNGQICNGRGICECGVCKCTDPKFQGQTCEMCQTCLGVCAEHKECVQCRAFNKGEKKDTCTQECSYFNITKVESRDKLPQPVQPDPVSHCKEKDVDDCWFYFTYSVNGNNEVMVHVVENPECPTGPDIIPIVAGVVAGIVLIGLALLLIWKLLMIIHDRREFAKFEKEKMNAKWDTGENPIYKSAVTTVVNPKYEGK
As to the kind of experiment: α2β1/collagen I cell adhesion assay (K562 transfected with human α2 integrin chain). The note with it: adhesion format, 1 mM MnCl2. The format is cell-based. On the procedure:
(§1) The ability of test compounds to block α2β1/collagen I and α1β1/collagen IV interactions were evaluated in cell adhesion assays. Collagen I and collagen IV were immobilized onto a 96-well Corning Easy Wash plate (Corning Cat. No. 25801). Human integrin-expressing cell lines (2×10^5/well) were labeled with a fluorescent compound, 2 μM BCECF-AM (Molecular Probes, Eugene, Oreg., Cat# B1150), and added with or without test compounds. After 30 minutes, the plates were washed, and bound cells quantified in a Cytofluor fluorescence plate reader. The assay buffer was TRIS-buffered saline (TBS: 24 mM TRIS, 137 mM NaCl, 2.7 mM KCl, 2 mM glucose, 0.1% BSA, pH 7.4), containing 1 mM MnCl2. The specificity of binding was controlled for using integrin specific neutralizing monoclonal antibodies. The antibodies were run at 10 μg/mL on each day of the assay and were as follows: anti-α4β1, mAb HP1/2 (Biogen); anti-α2β1, mAb 26G8 (Biogen); and α1β1, mAb AJH10 (Biogen).
(§2) The results presented in Table 3 summarize the integrin selectivity for PEGylated inhibitors. The selectivity of the PEGylated inhibitors for the four integrins indicated were tested in adhesion formats for α1β1 and α2β1, and by direct binding for α4β7. Serial dilutions of each compound were tested and IC50 values calculated from the concentration dependence of the inhibition curves. […]

The target of the next experiment is α1β1 (Homo sapiens, UniProt P05556+P56199). As to the kind of experiment: α1β1/collagen IV cell adhesion assay (K562 transfected with human α1-integrin chain). The format is cell-based. The note with it: adhesion format, 1 mM MnCl2. On the procedure:
as §1, §2

Experiment [1] concerns the target T2, α4β1 (Homo sapiens, UniProt P05556+P13612). As to the kind of experiment: VCAM-Ig direct binding assay (DBA), Jurkat cells.
Source text: A direct binding assay may also be employed to quantitate the inhibitory activity of the compounds. In this assay, a VCAM-IgG fusion protein containing the first two immunoglobulin domains of VCAM (D1D2) attached above the hinge region of an IgG1 molecule (“VCAM 2D-IgG”), is conjugated to a marker enzyme, such as alkaline phosphatase (“AP”). […] The conjugation of that fusion to a marker enzyme is achieved by cross-linking methods well-known in the art.
The VCAM-IgG enzyme conjugate is then placed in the wells of a multi-well filtration plate, such as that contained in the Millipore Multiscreen Assay System (Millipore Corp., Bedford, Mass.). Varying concentrations of the test inhibitory compound are then added to the wells followed by addition of VLA-4-expressing cells. The cells, compound and VCAM-IgG enzyme conjugate are mixed together and allowed to incubate at room temperature. Following incubation, the wells are vacuum drained, leaving behind the cells and any bound VCAM. Quantitation of bound VCAM is determined by adding an appropriate calorimetric substrate for the enzyme conjugated to VCAM-IgG and determining the amount of reaction product. Decreased reaction product indicates increased binding inhibitory activity.
Samples were also evaluated for function using the VCAM-Ig direct binding assay. Details for the construction of the VCAM-Ig animal cell expression vector, the generation of a Chinese hamster ovary (CHO) cell line expressing VCAM-Ig, conjugation of the VCAM-Ig to alkaline phosphatase, and the development of a direct binding assay for characterizing α4β1 and α4β7 binding to VCAM-Ig were as previously described (see Lobb, R. R., et al. (1995) Cell Adhes. Commun. 3:385–397).
For these studies, a series of compounds based on compound E containing 0.35, 2, 5, 20, 30, and 50 kDa-mPEG was synthesized and tested for binding to α4β1 on Jurkat cells with VCAM-Ig as a reporter (see methods).
Experiment [2] concerns the target T2, α4β1. Description: Kinetic binding to α4β1 on Jurkat cells, competition with 35S-B as probe for free α4β1. On the set-up: endogenous in cells; host or cells: Jurkat human T-cell line. As to conditions: for koff: read-out: koff/10^−4; for kon: read-out: kon/10^6; for Kd: calculated from on- and off-rate constants.
Procedure: All cells were periodically monitored for high integrin surface expression by FACS analysis. The binding of the various inhibitors to α4β1 were assessed on Jurkat cells by competition using radioactive ^35S-B as a reporter for a 1 occupancy. Jurkat cells were pelleted by centrifugation, washed two times with TBS (50 mM Tris HCl, 150 mM NaCl, 0.1% bovine serum albumin, 2 mM glucose, 10 mM HEPES pH 7.4), suspended at approximately 2×10^6 cells/mL in TBS, and counted using a Neubauer hemocytometer. The cells were further diluted 2×10^6 cells/mL with TBS containing 1 mM CaCl2 and 1 mM MgCl2 and treated with serial dilutions of test compound for 1 hour, and then 5 nM ^35S-B, an amount sufficient to bind all unoccupied receptors, was added for 10 minutes before measuring the bound counts. The cells were then pelleted by centrifugation, resuspended in 100 μL of TBS plus Mn^2+, and transferred to a scintillation vial containing 2.9 mL of ScintiVerse II (Fisher Scientific). Cell-associated radioactivity was quantified by scintillation counting. All studies were performed in siliconized 1.5 mL eppendorf tubes with a standard 1 mL sample volume. Each condition was tested in at least two independent studies. Non-specific binding of ^35S-B to cells was assessed at each cell density and ^35S-B concentration in TBS but in the absence of added metal ion. Specific counts bound were calculated by subtracting non specific counts from total counts bound. Counts bound under these conditions measures integrin that is not occupied by the test compound and is therefore free to bind the ^35S-B. The competition format was also used for kinetic binding studies. Binding and dissociation constants were calculated from α4β1 that remained free to bind the ^35S-B after treatment with test compound.
The affinities of the PEGylated inhibitors for α4β1 were calculated from association and disassociation rate constants using a kinetic analysis. For these studies, Jurkat cells expressing α4β1 (75,000 copies/cell) were treated with the inhibitors and then ^35S-B was added as a probe to detect free α4β1. The levels of bound inhibitor were calculated from a measure of total ^35S-B bound in the absence of added inhibitor and counts bound following inhibitor treatment.
The next experiment has as its system lymphocyte count. As to the kind of experiment: Lymphocyte counts following inhibitor treatment (lymphocytosis). The class given is in vivo, rat. As to conditions: 30 mg/kg s.c., single dose. As to the method: Female Lewis rats were injected with a single dose of either compound H (1 mg/kg, s.c in PBS), or compound R (30 mg/kg, s.c., in TRIS/lactose) or with their respective vehicles at time 0. At each timepoint, 0.3 mL blood from triplicate animals was drawn from the jugular vein without anesthesia and collected into Capiject purple-top microtainer tubes containing EDTA (Terumo Medical Corporation #T-MQK). […] samples were analyzed for lymphocyte count using an Abbott CellDyn 3500 cell analyzer. Blood samples from the compound H-treated animals were drawn at 4 hours, 8 hours, 12 hours, and on days 1, 2, 3, 4, 5, 6, 7, 8, and 9 and for the compound R-treated animals after 2, 6, 24, and 48 h.
Administration of compounds R and H to rats produced an α4β1-integrin dependent lymphocytosis that was sustained as long as sufficient concentrations of the inhibitors were maintained in circulation. From previous studies >90% of α4β1 receptors are estimated to be occupied to maintain lymphocytosis and therefore a target concentration of greater than or equal to 10 ng/mL compound needs to be maintained (see Leone, D. R., et al. (2003) J. Pharmacol. Exp. Ther. 305:1150–1162). […] A 2–3 fold increase in lymphocyte levels was observed. […] Elevated lymphocyte levels were maintained for 6 days. By day 9 lymphocyte levels had returned to normal. […]

In a further experiment the test system is EAE. Description: Rat EAE model induced with myelin basic protein peptide. The class given is in vivo. The note with it: daily 30 mg/kg s.c.

T2 sequence (P13612 34-1032): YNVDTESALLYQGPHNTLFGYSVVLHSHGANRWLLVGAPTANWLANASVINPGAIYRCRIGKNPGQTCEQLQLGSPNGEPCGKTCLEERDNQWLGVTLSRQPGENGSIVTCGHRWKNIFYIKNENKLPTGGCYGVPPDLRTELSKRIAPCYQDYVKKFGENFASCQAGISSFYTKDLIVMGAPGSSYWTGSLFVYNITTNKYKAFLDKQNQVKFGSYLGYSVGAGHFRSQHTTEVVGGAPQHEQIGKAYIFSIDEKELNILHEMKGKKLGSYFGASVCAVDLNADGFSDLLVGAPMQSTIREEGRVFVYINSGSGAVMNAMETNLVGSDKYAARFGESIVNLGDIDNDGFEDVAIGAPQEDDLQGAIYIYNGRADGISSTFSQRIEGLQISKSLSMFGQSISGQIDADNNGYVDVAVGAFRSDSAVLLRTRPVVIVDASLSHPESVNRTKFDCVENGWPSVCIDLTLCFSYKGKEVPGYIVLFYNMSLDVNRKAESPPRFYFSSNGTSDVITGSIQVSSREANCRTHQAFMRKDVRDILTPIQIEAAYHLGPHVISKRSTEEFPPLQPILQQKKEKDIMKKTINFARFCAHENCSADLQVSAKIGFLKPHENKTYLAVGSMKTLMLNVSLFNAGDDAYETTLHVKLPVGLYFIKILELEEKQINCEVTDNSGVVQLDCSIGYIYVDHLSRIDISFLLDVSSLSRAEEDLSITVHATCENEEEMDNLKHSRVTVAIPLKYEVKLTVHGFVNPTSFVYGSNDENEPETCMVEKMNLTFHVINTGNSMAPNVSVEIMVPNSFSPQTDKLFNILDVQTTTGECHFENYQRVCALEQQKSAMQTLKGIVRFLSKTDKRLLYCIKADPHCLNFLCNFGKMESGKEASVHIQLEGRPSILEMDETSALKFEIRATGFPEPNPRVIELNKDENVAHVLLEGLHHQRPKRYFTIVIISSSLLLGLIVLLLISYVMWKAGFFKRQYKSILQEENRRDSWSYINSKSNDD
T2 sequence (P05556 21-798): as the sequence (P05556 21-798) above
Sequence of α1β1 (P56199 29-1179): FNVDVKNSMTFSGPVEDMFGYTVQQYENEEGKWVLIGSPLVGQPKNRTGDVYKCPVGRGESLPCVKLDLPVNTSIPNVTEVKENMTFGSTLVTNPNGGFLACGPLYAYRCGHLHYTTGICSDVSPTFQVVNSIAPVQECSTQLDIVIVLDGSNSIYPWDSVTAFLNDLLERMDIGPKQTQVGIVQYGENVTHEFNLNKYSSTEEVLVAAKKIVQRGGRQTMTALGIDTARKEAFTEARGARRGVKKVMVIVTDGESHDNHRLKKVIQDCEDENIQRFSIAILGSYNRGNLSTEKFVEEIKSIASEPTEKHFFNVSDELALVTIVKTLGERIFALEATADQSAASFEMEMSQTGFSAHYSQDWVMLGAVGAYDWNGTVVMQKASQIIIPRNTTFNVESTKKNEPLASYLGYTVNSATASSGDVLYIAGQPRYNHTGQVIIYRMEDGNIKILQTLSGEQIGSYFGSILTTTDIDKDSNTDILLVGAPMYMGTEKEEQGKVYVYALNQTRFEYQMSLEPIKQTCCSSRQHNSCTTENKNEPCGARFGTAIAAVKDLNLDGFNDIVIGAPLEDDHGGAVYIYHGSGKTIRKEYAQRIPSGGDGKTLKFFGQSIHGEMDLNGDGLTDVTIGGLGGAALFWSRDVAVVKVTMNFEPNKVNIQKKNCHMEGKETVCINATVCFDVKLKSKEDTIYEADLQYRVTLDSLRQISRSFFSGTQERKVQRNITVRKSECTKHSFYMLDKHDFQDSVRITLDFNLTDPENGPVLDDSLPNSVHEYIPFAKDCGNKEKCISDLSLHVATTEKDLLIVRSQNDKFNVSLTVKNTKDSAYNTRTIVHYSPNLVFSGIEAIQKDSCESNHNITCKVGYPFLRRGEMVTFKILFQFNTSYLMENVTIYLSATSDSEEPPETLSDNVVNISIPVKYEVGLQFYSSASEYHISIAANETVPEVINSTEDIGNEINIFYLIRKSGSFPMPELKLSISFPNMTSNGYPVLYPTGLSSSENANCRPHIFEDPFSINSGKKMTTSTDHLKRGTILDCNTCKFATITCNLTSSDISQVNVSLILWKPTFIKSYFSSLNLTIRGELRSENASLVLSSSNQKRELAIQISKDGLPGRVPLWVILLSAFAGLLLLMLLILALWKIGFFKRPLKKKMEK
Sequence of α1β1 (P05556 21-798): as the sequence (P05556 21-798) above

For the compound `Cc1ccccc1NC(=O)Nc1ccc(CC(=O)N(C)[C@@H](CC(C)C)C(=O)NCC[C@H](NC(=O)C2CCCN2S(=O)(=O)c2ccccc2)C(=O)O)cc1` (stereo partly drawn) [Compound B, 2S-[(1-benzenesulfonyl-pyrrolidine-2S-carbonyl)-amino]-4-[4-methyl-2S-(methyl-{2-[4-(3-o-tolyl-ureido)-phenyl]-acetyl}-amino)-pentanoylamino]-butyric acid], the half-maximal inhibitory concentration (IC50) against α2β1 was 5000 nM; on α1β1, above 10000 nM; on α4β1 [1] (DBA IC50 100% rat plasma, 100% rat plasma), 13 nM; at α4β1 [1] (DBA IC50 Ca2+Mg2+, Ca2+Mg2+) it was 2 nM; at α4β1 [1] (DBA IC50 Mn2+, Mn2+), 1.2 nM. For the same compound, the “% bound Ca2+Mg2+ 30 min” value at α4β1 [2] (Ca2+Mg2+, 30 min) is given as above 90%. The same compound came in with an On-rate at α4β1 [2] (Jurkat cells, 35S-B probe) of 4e+06 M⁻¹ s⁻¹. The koff at α4β1 [2] (Jurkat cells, 35S-B probe) was determined as 1.9e-05 s⁻¹. In addition, the kon on α4β1 [2] (Jurkat cells, 35S-B probe) amounted to 4e+06 M⁻¹ s⁻¹. Also, the “% bound Mn2+ 60 min” value at α4β1 [2] (Mn2+, 60 min) is above 95%. Further, at α4β1 [2] (Jurkat cells), the Kd was 0.005 nM.

In the case of `Cc1ccccc1NC(=O)Nc1ccc(CC(=O)N(C)[C@@H](CC(C)C)C(=O)NCC[C@H](NC(=O)[C@@H]2CCCN2S(=O)(=O)c2cc(Cl)cc(Cl)c2)C(=O)O)cc1` [Compound R, 2S-{[1-(3,5-dichloro-benzenesulfonyl)-pyrrolidine-2S-carbonyl]-amino}-4-[4-methyl-2S-(methyl-{2-[4-(3-o-tolyl-ureido)-phenyl]-acetyl}-amino)-pentanoylamino]-butyric acid], in the experiment with lymphocyte count, the “day by which lymphocyte levels returned to normal” value was at most 2 days and the duration of lymphocytosis entry was “one”. In addition, in the experiment with EAE, the “mean paralytic score reached” value stood at 3.0. On α4β1 [2] (Jurkat cells, 35S-B probe), the koff amounted to 1.2e-05 s⁻¹ and the kon was determined as 1.5e+06 M⁻¹ s⁻¹. Besides, the Kd at α4β1 [2] (Jurkat cells) was 0.009 nM.
